Columns and labels:
CDK2/Cyclin E complex = CDK2/Cyclin E complex (Homo sapiens, UniProt P24941); assay: In vitro kinase assay, CDK2/Cyclin E complex; type: biochemical; conditions: recombinant protein (Upstate); read-out: CDK2/cyclinE IC50
Experimental: (§1) Inhibitory activity against Aurora A, CDK1/Cyclin B complex, CDK2/Cyclin E complex and CDK3/Cyclin E complex were measured by in vitro kinase assay using recombinant proteins.

[1] = test system: colon carcinoma cell line SW620; assay: Cell proliferation inhibitory activity, SW620; type: cell-based, human; conditions: cells counted 4 days later with Cell Counting Kit-8
Experimental: (§2) Evaluations were carried out using colon carcinoma cell line SW620 (Cat. No. CCL-227), lung carcinoma cell line NCI-H460 (Cat. No. HTB-177), prostate cancer cell line DU 145 (Cat. No. HTB-81), breast cancer cell line MDA-MB-231 (Cat. No. HTB26) and leukemia cell line KG-1a (Cat. No. CCL-246.1) purchased from ATCC, pancreatic cancer cell line MIAPaCa-2 (Cat. No. CRL-1420) purchased from Dainippon Pharmaceutical, and ovarian cancer cell line IGROV1 received from the Netherland Cancer Institute. The cells were cultured under the conditions recommended by the supplier for each cell line, or with respect to IGROV1, according to the method described in Cancer Res. 59: 4559-4563, 1999. Cells suspended in media were added to solutions containing the test substances at various concentrations followed by culturing in a 5% CO2 incubator at 37° C. The numbers of cells were counted 4 days later with the Cell Counting Kit-8. IC50 values were calculated by assigning measured values in the case of not containing a test substance to an inhibition of 0%, and assigning measured values in the case of not containing a test substance or cells to an inhibition of 100%.

Aurora A = biological target: T1, Aurora A (Homo sapiens, UniProt O14965); assay: In vitro kinase assay, Aurora A; type: biochemical; conditions: recombinant protein (Upstate)
T1 construct: purchased Upstate Inc. 14-511
T1 sequence (O14965 1-403): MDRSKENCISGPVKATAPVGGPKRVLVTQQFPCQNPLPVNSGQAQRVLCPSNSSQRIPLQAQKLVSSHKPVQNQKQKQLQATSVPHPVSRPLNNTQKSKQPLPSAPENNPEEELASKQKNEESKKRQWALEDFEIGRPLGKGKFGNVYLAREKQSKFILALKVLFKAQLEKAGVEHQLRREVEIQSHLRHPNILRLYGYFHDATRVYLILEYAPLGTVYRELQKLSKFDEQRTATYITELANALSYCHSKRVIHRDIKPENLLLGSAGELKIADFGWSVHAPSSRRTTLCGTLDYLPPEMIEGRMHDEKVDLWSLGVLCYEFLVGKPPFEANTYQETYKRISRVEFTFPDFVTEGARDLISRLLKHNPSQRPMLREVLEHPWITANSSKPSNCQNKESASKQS
Experimental: Inhibitory activity against Aurora A, CDK1/Cyclin B complex, CDK2/Cyclin E complex and CDK3/Cyclin E complex were measured by in vitro kinase assay using recombinant proteins. The assays were carried out by using recombinant proteins (Upstate Inc.) for Aurora A, CDK1/Cyclin B complex, CDK2/Cyclin E complex and CDK3/Cyclin E complex (respective cat. nos. 14-511, 14-450, 14-448 and 14-487), in accordance with the procedure described in the product instructions thereof. The 50% inhibitory concentrations (IC50 values) were calculated by assigning measured values in the case of not containing a test compound to an inhibition of 0%, and assigning measured values in the case of not containing a test compound and enzyme to an inhibition of 100%.

leukemia cell line KG-1a = assay: Cell proliferation inhibitory activity, KG-1a; type: cell-based; conditions: cells counted 4 days later with Cell Counting Kit-8
Experimental: as §2

CDK3/Cyclin E complex = biological target: T2, CDK3/Cyclin E complex (Homo sapiens, UniProt Q00526); assay: In vitro kinase assay, CDK3/Cyclin E complex; type: biochemical; conditions: recombinant protein (Upstate); read-out: CDK3/cyclinE IC50
T2 construct: purchased Upstate Inc. 14-487
T2 sequence (Q00526 whole entry): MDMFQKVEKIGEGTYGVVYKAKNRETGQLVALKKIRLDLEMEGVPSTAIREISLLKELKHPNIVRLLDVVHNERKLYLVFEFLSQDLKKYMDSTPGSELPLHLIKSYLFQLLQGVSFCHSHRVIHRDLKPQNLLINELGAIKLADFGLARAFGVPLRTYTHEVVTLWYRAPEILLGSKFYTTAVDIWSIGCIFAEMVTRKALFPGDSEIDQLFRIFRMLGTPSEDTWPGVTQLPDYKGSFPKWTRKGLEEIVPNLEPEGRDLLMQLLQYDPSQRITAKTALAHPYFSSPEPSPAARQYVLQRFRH
T2 sequence (P24864 whole entry partner): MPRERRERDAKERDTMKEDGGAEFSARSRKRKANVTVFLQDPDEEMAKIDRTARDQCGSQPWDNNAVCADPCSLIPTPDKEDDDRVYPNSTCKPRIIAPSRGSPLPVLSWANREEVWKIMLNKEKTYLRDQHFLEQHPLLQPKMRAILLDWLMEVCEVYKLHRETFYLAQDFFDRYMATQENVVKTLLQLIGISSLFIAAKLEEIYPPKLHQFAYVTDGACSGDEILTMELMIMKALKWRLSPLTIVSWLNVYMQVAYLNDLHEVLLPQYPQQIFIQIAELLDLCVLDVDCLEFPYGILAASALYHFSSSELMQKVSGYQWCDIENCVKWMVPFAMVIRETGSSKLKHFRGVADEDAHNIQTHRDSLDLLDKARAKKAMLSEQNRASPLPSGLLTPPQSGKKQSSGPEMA
Experimental: as §1

SMILES | IC50 (CDK2/Cyclin E complex) | IC50 ([1]; Homo sapiens, SW-620, 96 h) | IC50 (Aurora A) | IC50 (leukemia cell line KG-1a; Homo sapiens, 96 h) | IC50 (CDK3/Cyclin E complex) | IC50 (leukemia cell line KG-1a) | IC50 [1]
O=C(CNc1cccc(O)c1)Nc1nc2ccc3[nH]ncc3c2s1 [compound 2] | 82 nM | 1200 nM | 148 nM | < 100 nM | 128 nM |  | 
COc1cc(NCC(=O)Nc2nc3ccc4[nH]ncc4c3s2)ccc1Cl [compound 4] | 335 nM | 2000 nM |  | 100 nM | 468 nM |  | 
O=C(CNc1cc(F)cc(F)c1)Nc1nc2ccc3[nH]ncc3c2s1 [compound 5] |  |  |  |  |  | < 100 nM | 
O=C(CNc1cccc(Cl)c1)Nc1nc2ccc3[nH]ncc3c2s1 [compound 8] | 171 nM |  |  |  |  |  | 
O=C(CNc1ccc2[nH]ncc2c1)Nc1nc2ccc3[nH]ncc3c2s1 [compound 13] | 417 nM |  |  |  |  |  | 
CS(=O)(=O)Nc1cccc(NCC(=O)Nc2nc3ccc4[nH]ncc4c3s2)c1 [compound 14] | 224 nM |  |  | 200 nM | 410 nM |  | 
O=C(CNc1ccc2cn[nH]c2c1)Nc1nc2ccc3[nH]ncc3c2s1 [compound 15] | 40 nM |  |  |  | 88 nM |  | 
O=C(CNc1ccccc1)Nc1nc2c(C(F)(F)F)cc3[nH]ncc3c2s1 [compound 18] |  |  |  |  | 380 nM |  | 
Cc1cc2[nH]ncc2c2sc(NC(=O)CNc3ccccc3)nc12 [compound 19] | 190 nM | 2900 nM |  |  | 242 nM |  | 
O=C(CNc1ccccc1)Nc1nc2c(F)cc3[nH]ncc3c2s1 [compound 20] |  |  |  |  |  | 100 nM | 1300 nM
COc1cccc(NC(C)C(=O)Nc2nc3ccc4[nH]ncc4c3s2)c1 (stereo not drawn) [compound 22] |  | 1700 nM | 387 nM | < 100 nM |  |  | 
COc1cccc(NC(CC(C)C)C(=O)Nc2nc3ccc4[nH]ncc4c3s2)c1 (stereo not drawn) [compound 26] |  |  |  |  |  | 200 nM | 
O=C(Nc1nc2ccc3[nH]ncc3c2s1)C(Nc1cccc(O)c1)c1ccccc1 (stereo not drawn) [compound 27] |  |  | 115 nM | 100 nM |  |  | 
CCC(=O)Nc1cc(NC(C(=O)Nc2nc3c(C(F)(F)F)cc4[nH]ncc4c3s2)c2ccccc2)ccc1Cl (stereo not drawn) [compound 31] | 372 nM | 2700 nM |  |  | 353 nM |  | 
COc1cccc(NC(C)(C)C(=O)Nc2nc3ccc4[nH]ncc4c3s2)c1 [compound 34] |  |  | 332 nM | 100 nM |  |  | 
Cc1ccc(NC(C)(C)C(=O)Nc2nc3ccc4[nH]ncc4c3s2)cc1 [compound 39] | 143 nM | 2000 nM |  | < 100 nM | 367 nM |  | 
COc1ccc(NC(C)(C)C(=O)Nc2nc3ccc4[nH]ncc4c3s2)cc1 [compound 40] | 340 nM | 2300 nM |  | 200 nM |  |  | 
CC(C)(Nc1cccc(F)c1)C(=O)Nc1nc2ccc3[nH]ncc3c2s1 [compound 42] | 434 nM | 2200 nM |  | < 100 nM |  |  | 
COc1cc(NC(C)(C)C(=O)Nc2nc3ccc4[nH]ncc4c3s2)ccc1Cl [compound 43] |  |  | 347 nM | 200 nM |  |  | 

SMILES | IC50 (CDK2/Cyclin E complex) | IC50 ([1]; Homo sapiens, SW-620, 96 h) | IC50 (Aurora A) | IC50 (leukemia cell line KG-1a; Homo sapiens, 96 h) | IC50 (CDK3/Cyclin E complex) | IC50 (leukemia cell line KG-1a) | IC50 [1]
CC(C)OC(=O)c1cc(NC(C)(C)C(=O)Nc2nc3ccc4[nH]ncc4c3s2)ccc1Cl [compound 47] | 260 nM |  | 148 nM | < 100 nM | 343 nM |  | 
CCOC(=O)c1cc(NC(C)(C)C(=O)Nc2nc3ccc4[nH]ncc4c3s2)ccc1F [compound 49] |  |  | 265 nM | < 100 nM |  |  | 
CC(C)(Nc1cccc(C(=O)O)c1)C(=O)Nc1nc2c(C(F)(F)F)cc3[nH]ncc3c2s1 [compound 66] |  |  | 294 nM |  | 333 nM |  | 
CC(C)(Nc1cccc(F)c1)C(=O)Nc1nc2c(C(F)(F)F)cc3[nH]ncc3c2s1 [compound 67] |  | 3000 nM |  |  | 371 nM |  | 
CC(C)(Nc1ccc2[nH]c(=O)[nH]c2c1)C(=O)Nc1nc2c(C(F)(F)F)cc3[nH]ncc3c2s1 [compound 83] | 343 nM |  |  |  |  |  | 
CC(C)(Nc1ccc(Cl)cc1C(=O)NCC(N)=O)C(=O)Nc1nc2c(C(F)(F)F)cc3[nH]ncc3c2s1 [compound 88] | 449 nM | 2900 nM |  |  | 386 nM |  | 
CON(C)C(=O)c1cc(Cl)ccc1NC(C)(C)C(=O)Nc1nc2c(C(F)(F)F)cc3[nH]ncc3c2s1 [compound 100] | 391 nM | 3300 nM |  | 300 nM | 344 nM |  | 
O=C(CNc1ccc(F)cc1)Nc1nc2ccc3[nH]ncc3c2s1 [compound 105] | 205 nM | 1500 nM |  | 100 nM | 257 nM |  | 
CC(=O)Nc1cccc(NCC(=O)Nc2nc3ccc4[nH]ncc4c3s2)c1 [compound 106] | 55 nM |  |  | < 100 nM | 153 nM |  | 
O=C(CNc1ccccc1)Nc1nc2ccc3[nH]nc(Cl)c3c2s1 [compound 108] |  |  |  |  |  | 300 nM | 
NC(=O)CC(Nc1cccc(O)c1)C(=O)Nc1nc2ccc3[nH]ncc3c2s1 (stereo not drawn) [compound 109] | 56 nM |  | 364 nM | < 100 nM | 55 nM |  | 
COc1cccc(NC(CC(N)=O)C(=O)Nc2nc3ccc4[nH]ncc4c3s2)c1 (stereo not drawn) [compound 110] | 320 nM |  |  |  | 392 nM |  | 
O=C(Nc1nc2ccc3[nH]ncc3c2s1)C1CCCN1c1ccc(Cl)cc1 (stereo not drawn) [compound 111] | 100 nM | 2300 nM |  | 500 nM | 262 nM |  | 
COc1cccc(NC2(C(=O)Nc3nc4ccc5[nH]ncc5c4s3)CC2)c1 [compound 119] |  |  |  |  |  | 300 nM | 2600 nM
CC(C)OC(=O)c1cc(NC2(C(=O)Nc3nc4ccc5[nH]ncc5c4s3)CC2)ccc1Cl [compound 123] | 141 nM | 2300 nM |  |  | 195 nM |  | 
CN(C)C(=O)c1cc(NC2(C(=O)Nc3nc4ccc5[nH]ncc5c4s3)CC2)ccc1Cl [compound 124] |  |  |  |  |  | 100 nM | 
CC(=O)Nc1cc(NC(C(=O)Nc2nc3ccc4[nH]ncc4c3s2)c2ccccc2)ccc1Cl (stereo not drawn) [compound 131] | 277 nM | 3000 nM | 94 nM |  | 427 nM |  | 
COC(=O)c1cccc(NCC(=O)Nc2nc3ccc4[nH]ncc4c3s2)c1 [compound 134] | 339 nM | 1900 nM |  | < 100 nM | 477 nM |  | 
